Source: patent US20220411422A1, “ERBB RECEPTOR INHIBITORS” (Dizal (Jiangsu) Pharmaceutical Co., Ltd., priority 2018, published 2022)

Columns and labels:
pHER2 in tumor tissue = biological target: T1, pHER2 in tumor tissue (Homo sapiens, UniProt P04626); assay: PK/PD relationship in BT474cl SC model; assay type: in vivo, mouse
T1 construct: The SC, BM and LM models with HER2 overexpression; from tissue; host or cells: BT474cl subcutaneous xenograft tumour in mice
Protocol: The SC, BM and LM models with HER2 overexpression were treated with the Compound 6 at dosages of 25 mg/kg, 50 mg/kg, 100 mg/kg and 150 mg/kg. […] Moreover, the Compound 6 at dosages of 6.25 mg/kg, Capecitabine (400 mg/kg), T-DM1 (15 mg/kg), Compound 6 (6.25 mg/kg) in combination with Capecitabine (400 mg/kg) or T-DM1 (15 mg/kg) were used to treat the SC, and BM models with HER2 overexpression to check the tumor regression effect of Compound 6 in combination with other anti-cancer agent. […] Moreover, the PK and PD of Compound 6 in BT474cl SC model were tested.

BT474 cells = assay: BT474 anti-proliferation assay, MTS; assay type: cell-based; settings: Homo sapiens, BT-474, 72 h, read-out: HER2WT Amplification BT474 GI50
Protocol: (§1) A compound's activity of selective inhibition for HER2 wild type amplification can be evaluated with BT474 cell line (ATCC® HTB-20™). The cell line expressed phosphorylated HER2 protein and its proliferation depended on the amplified gene, which could be used for in vitro PD and anti-proliferation assays.
The anti-proliferation activity of compounds were determined as following procedure: The BT474 cells were sorted in 384 well plates with the DMEM medium containing 10% FBS and […] overnight and then dosed with tested compounds at a series of concentrations (30 μM, 10 μM, 3 μM, 1 μM, 0.3 μM, 0.1 μM, 0.03 μM, 0.01 μM, 0.001 μM) on next day. Meanwhile, another cells plate was prepared for measuring G0 value on next day. The dosed plates were incubate for 72 h at 37° C. with 5% CO2 and the number of viable cells in each well of G0 or dosed plates were measured by MTS (CellTiter 96® AQueous One Solution Cell Proliferation Assay, Promega) endpoint. This assay is a colorimetric method for determining the number viable cells in the proliferation assay. Detection reagents (5 μl) was dispensed into per well, and the plates were incubated for 2 hrs at room temperature. Then, absorbance at 490 nm and 650 nm (reference wavelength) in each well was measured using the safile II. (Tecan). […]

pHER2 = biological target: T2, pHER2 (Homo sapiens, UniProt P04626); assay: pHER2 cellular activity in BT474c1 cell line; assay type: cell-based
T2 construct: pHER2 in cells expressing HER2; endogenous in cells; host or cells: BT474c1
T2 sequence (P04626 23-1255): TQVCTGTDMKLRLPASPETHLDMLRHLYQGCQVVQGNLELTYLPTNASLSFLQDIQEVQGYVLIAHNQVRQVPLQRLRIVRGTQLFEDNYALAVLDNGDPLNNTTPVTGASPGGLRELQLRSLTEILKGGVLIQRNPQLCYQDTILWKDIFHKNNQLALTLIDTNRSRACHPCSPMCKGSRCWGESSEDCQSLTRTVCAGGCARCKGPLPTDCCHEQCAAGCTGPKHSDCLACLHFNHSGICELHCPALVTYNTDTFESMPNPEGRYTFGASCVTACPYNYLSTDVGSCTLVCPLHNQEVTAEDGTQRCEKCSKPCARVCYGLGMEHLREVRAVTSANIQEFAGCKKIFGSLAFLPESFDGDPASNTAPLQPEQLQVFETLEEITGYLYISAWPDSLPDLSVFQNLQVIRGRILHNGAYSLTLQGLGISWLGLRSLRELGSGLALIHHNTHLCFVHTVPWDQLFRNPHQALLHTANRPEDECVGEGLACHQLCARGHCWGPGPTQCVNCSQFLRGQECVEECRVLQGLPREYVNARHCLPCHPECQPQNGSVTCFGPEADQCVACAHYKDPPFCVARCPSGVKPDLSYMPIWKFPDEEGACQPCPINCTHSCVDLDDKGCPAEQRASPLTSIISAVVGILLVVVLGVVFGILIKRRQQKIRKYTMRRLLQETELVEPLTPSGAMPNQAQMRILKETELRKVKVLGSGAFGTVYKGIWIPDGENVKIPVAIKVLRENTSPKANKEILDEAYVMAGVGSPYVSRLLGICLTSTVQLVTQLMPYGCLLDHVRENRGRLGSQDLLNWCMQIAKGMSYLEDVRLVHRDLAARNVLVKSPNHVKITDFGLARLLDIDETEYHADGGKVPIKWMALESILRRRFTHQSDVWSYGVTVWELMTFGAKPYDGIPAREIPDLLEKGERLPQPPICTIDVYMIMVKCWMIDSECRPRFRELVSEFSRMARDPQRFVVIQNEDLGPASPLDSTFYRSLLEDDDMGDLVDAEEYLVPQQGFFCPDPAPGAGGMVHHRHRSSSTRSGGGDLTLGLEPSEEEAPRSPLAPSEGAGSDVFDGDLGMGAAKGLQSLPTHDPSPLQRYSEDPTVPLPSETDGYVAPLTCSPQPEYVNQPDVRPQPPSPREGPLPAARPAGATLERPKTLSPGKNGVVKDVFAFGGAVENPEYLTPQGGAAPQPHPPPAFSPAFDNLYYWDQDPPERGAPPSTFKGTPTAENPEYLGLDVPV
Protocol: as §1
The compounds' inhibition of target modulation were determined as follows: BT474 cells were sorted in 96 well plates (20000 cells/well) with the DMEM medium containing 10% FBS overnight and then treated with tested compounds at a series of concentrations (3 μM, 0.3 μM, 0.1 μM, 0.03 μM, 0.01 μM, 0.003 μM, 0.001 μM, 0.0001 μM). The plates were incubated for 4 h at 37° C. with 5% CO2 and then the HER2 (Y1248) phosphorylation level of cells in each well were measured with MSD Kit (Phospho-ErbB2 (Tyr1248) Assay Whole Cell Lysate Kit: Cat #K151CLD-3). The assay is a electrochemiluminescent method (MESO SCALE DISCOVERY) for determining both phosphorylated and total HER2 of cells with an MSD SECTOR® Imager and then the ratio of p-HER2/total HER2 can be generated by the machine. The percentage of inhibition was got from formula: % inhibition=100×[1−(ratio of sample well−ratio of Min ctrl well)/(ratio of Max−Ratio of Min ctrl well)]. The IC50 values were further calculated as the compounds concentration required for 50% inhibition in best-fit curves using Prism GraphPad 7.0 or Microsoft Xlfit software.

[1] = tested on: Human Pgp/BCRP transporter; assay: Human Pgp/BCRP transporter substrate assessment; assay type: in vitro ADME
[2] = Blood brain barrier penetration assay in monkeys; assay type: in vivo; settings: CSF, oral; Table 5; monkey
Protocol: In vitro blood, plasma and brain binding assay was carried out with equilibrium dialysis device. Diluted blood (1:1 with DPBS pH7.4), EDTA-anticoagulated plasma, and brain homogenate (1:3 with DPBS pH7.4) were spiked with 5 μM test compound (in triplicate) and dialyzed against equal volume of 150 μL 100 mM PBS buffer (pH7.4) at 37° C. for appropriate equilibration time in a slowly rotated plate. At the end of incubation, a 50 μL aliquot from the receiver side and a 5 μL from the donor chamber were taken. The 5 μL sample was further diluted with 45 μL of blank blood, plasma or brain homogenate. […] After centrifuging at 4000 rpm for 20 min, supernatant was diluted with 0.1% formic acid aqueous solution and analyzed for LC/MS/MS (API 4000, Applied Biosystems, Foster City). Unbound fraction (fu) of test compound were calculated by the ratio of the buffer side response to the brain homogenate/plasma/blood side response, and unbound fraction (fu,bl, fu,pl and fu,br) of test compound in non-diluted blood and tissue were calculated from measured fu in homogenate and diluted blood with the following equation: fu,bl (fu,br)=(1/D)/[(1/fu−1)+1/D)]. […]
Total brain levels, expressed as brain/blood ratio (Kp,brain) were measured by AUC(brain)/AUC(blood or plasma) in rodents after oral administration. […]
Kp,uu brain and Kp,uu CSF was calculated by the following equation: […]

T1 sequence (P04626 23-1255): as above

For `COc1cc(O[C@H]2CCN(C)CC2(F)F)c2c(Nc3ccc(Oc4ccn5ncnc5c4)c(C)c3)ncnc2c1` (single isomer, unassigned) [Compound 6], the “relationship between plasma concentration and pHER2 inhibition in tumor tissue” value (pHER2 in tumor tissue) was “positive correlation”, the GI50 (BT474 cells) was about 20 nM and the “selectivity between pHER2 in cells expressing HER2 and pEGFR in cells expressing wild type EGFR” value (pHER2) was “over 300 fold”. For the same compound, the IC50 (pHER2; BT474c1 cell line) was 4.4 nM, the “Human Pgp/BCRP transporter substrate” value [1] was “No” and the Kp uu [2] was 4.1.
